The test system of one data set is CHO. Put plainly: XTT cell survival assay (growth inhibition), CHO. In kind it is cell-based, Chinese hamster. The note with it: up to 25 μM. The procedure: (§1) The cytotoxicity of the peptide-drug conjugates was determined by measuring the mitochondrial enzyme activity, using a commercial XTT assay kit. All samples were prepared in PBS pH 7.4 contained 3% DMSO. The Cells were cultured in micro wells at a concentration 5-10×10^4 cells/well. The cells were washed and fresh cell medium containing different concentrations (up to 25 μM) of the conjugates were added and the cells were incubated for 10 minutes. The cultures were washed and then given a fresh medium and cultured for 48 hours and 72 hours. At the end of the second incubation, XTT reagent was added and the cells were re-incubated for additional 2-4 hours. During that time the absorbencies in the wells were measured with a TECAN Infinite M200 ELISA reader at 480 nm and 680 nm. The difference in the absorbencies measurements at these two wavelengths was used for calculating the percentage Growth Inhibition (GI) in test wells compared to two controls: cells that were exposed to the medium and solvent, and those which were exposed to a solvent-free medium. All the tests were done in triplicate.
A general note: Tetrazolium assays rely on reduction of a dye to a coloured formazan, in cell work by metabolically active cells.

Another data set deals with Panc-1. Put plainly: XTT cell survival assay (growth inhibition), Panc-1. It counts as cell-based, human. The conditions noted are these: Panc-1, XTT, up to 25 μM. The procedure:
as §1

Data set [1] can be described thus: Spectral properties of RD, IRD-CLB and 5-CLB in PB and CM. It counts as physicochemical. The procedure:
The spectral properties of the dye RD and its conjugates IRD-CLB and 5-CLB were measured at the concentrations (c) of 0.6 μM in 10 mM phosphate buffer pH 7.5 (PB) and cell medium pH 7.5 (CM), both containing 20% of acetonitrile (ACN) to improve solubility of the compounds.
Table 2 presents the absorption (λmaxAb) and emission (λmaxFl) maxima, extinction coefficients (ε) and fluorescence quantum yields (ΦF) of the RD dye and IRD-CLB and 5-CLB conjugates measured at 25° C. in 10 mM phosphate buffer pH 7.5 (PB) and cell medium pH 7.5 (CM).
The biodegradable ester linker (BL) in IRD-CLB and 5-CLB can be hydrolyzed to release free CLB and, accordingly, IRD turns into RD, which is accompanied by a noticeable change in the spectral properties. The time-dependent emission spectra were recorded in PB and CM (see, FIGS. 9A-D) using the excitation wavelengths 720 nm and 532 nm. The first one enabled monitoring of the decrease in the concentration of IRD-CLB and 5-CLB, while the second one—the increase in the concentration of RD and OctA-RD. Only the NIR fluorescence of IRD-CLB and 5-CLB was detected, when excited at 720 nm; and only the red fluorescence of RD and OctA-RD was detected, when excited at 532 nm.
Absorption spectra were recorded on a Jasco V-730 UV-Vis spectrophotometer and the fluorescence spectra were measured on Edinburgh FS5 spectrofluorometer. The absorption and fluorescence spectra and the quantum yields (ΦF) were measured in a 1-cm quartz cell at ˜0.5 μM dye concentrations in PB 10 mmol buffer pH 7.4 at 25° C. and cell medium pH 7.4. Excitation wavelength was 720 nm and 532 nm. The recorded fluorescence spectra were corrected using the wavelength-dependent instrument sensitivity coefficients. Absorption and emission maxima were measured with accuracy of ±0.3 nm and ±0.5 nm, respectively, and rounded. For the determination of the quantum yields, the integrated relative intensities were measured versus ICG™ in methanol as the reference (ΦF=0.043) and Cy3™ in PBS (ΦF=0.043). The absorbance values measured for the samples and the reference at the excitation wavelength were 0.04-0.06 measured in a 1-cm cell. The absolute quantum yields were calculated according to Equation 1.

A short description of data set [2]: Absorption and emission spectra of XCy, XCy-CLB and OCTA-G-XCy-CLB in PB and CM. It counts as physicochemical. The conditions noted are these: for λmaxFl: λex 650 nm; for absorption maximum / fluorescence: in PB and CM. How it is done: The absorption and emission spectra of XCy, XCy-CLB and OCTA-G-XCy-CLB were investigated in two different conditions, 10 mM phosphate buffer pH 7.4 containing 10% methanol (PB) and cell medium pH 7.4 containing 10% methanol (CM) (see, Table 1 below). CM was taken as a model of normal physiological conditions during drug delivery in the experiments with cells. A RPMI-1640 standard cell medium that contains 50 mL fetal bovine serum (FBS), 5 mL penicillin (10,000 U/mL), 5 mL streptomycin (10 mg/mL), 5 mL of 200 mM glutamine, and 5.3 mg/L phenol red indicator was utilized. FBS contains enzyme aspartate-aminotransferase that facilitates the ester bond cleavage.
(§2) Absorption spectra were recorded on a Jasco V-730 UV-Vis spectrophotometer and the fluorescence spectra were measured on Edinburgh FS5 spectrofluorometer. The absorption and fluorescence spectra were measured in 1-cm quartz cells at about 0.5 μM dye concentrations in PB 10 mmol buffer pH 7.4 at 25° C. and cell medium pH 7.4. Excitation wavelength was 650 nm. All the solutions were filtered in PVDF 0.45 μm filter before taking spectrum.

A short description of data set [3]: Time-dependent absorption/fluorescence CLB cleavage profiles of XCy-CLB and OCTA-G-XCy-CLB in PB and cell medium. It counts as in vitro ADME. The conditions noted are these: read-out: CLB release half-life τ1/2 (converted). The procedure:
To estimate the rate of the CLB release, the time-dependent absorption and fluorescence spectra of XCy-CLB and OCTA-G-XCy-CLB were measured in PB and CM (see, FIGS. 5A-H). With respect to time, the absorption band at about 600 nm decreases, a new band at about 680 nm increases and a fluorescence band subsequently appears at ˜708 nm (λex=650 nm).
Based of the time-dependent absorption and emission spectra, corresponding drug cleavage profiles were obtained (see, FIGS. 6A-B) and the drug release rates were quantified by half-lives (τ1/2). The cleavage profiles and half-lives obtained spectrophotometrically and spectrofluorometrically almost coincide. […] The release of CLB from OCTA-G-XCy-CLB in CM (τ1/2˜25 min) is […] faster than that in PB τ1/2 ˜2.5 h. Thus, the drug release for both XCy-CLB and OCTA-G-XCy-CLB in CM is much faster compared to PB. The obtained half-lives of the ester bond cleavage in these media were found in good agreement with some reported data. Linkage of OCTA to the conjugate accelerates the drug release by factor of 6 in PB and 1.3 in CM.
as §2

The mark [4] stands for this setting: PB:ACN (4:1, v/v), 25° C., c=0.6 μM.
Setting [5] is: CM: cell medium pH 7.4 containing 10% methanol.
Where [6] appears, read: PB: 10 mM phosphate buffer pH 7.4 containing 10% methanol.

Like-named read-outs stand apart in the source and are kept apart here.

Consider `O=C(O)CCCc1ccc(N(CCCl)CCCl)cc1` [CLB, chlorambucil], for which the “Growth Inhibition (GI) / toxicity” value with CHO was “neither free OCT, nor free CLB exhibited detectible toxicity”; with Panc-1, “neither free OCT, nor free CLB exhibited detectible toxicity”.
Consider `C[N+]1=C(C=CC2=C(OC(=O)CCCc3ccc(N(CCCl)CCCl)cc3)C(=CC=C3N(CCCCCC(=O)O)c4ccccc4C3(C)C)CCC2)C(C)(C)c2ccccc21` [IRD-CLB, 2-(−2-(−2-((4-(4-(bis(2-chloroethyl)amino)phenyl)butanoyl)oxy)-3-(2-(−1-(5-carboxypentyl)-3,3-dimethylindolin-2-ylidene)ethylidene)cyclohex-1-en-1-yl)vinyl)-1,3,3-trimethyl-3H-indol-1-ium], for which, in data set [1] (CM:ACN (4:1, v/v), 25° C.), the ΦF amounted to 6.3%, the λmaxAb was determined as 785 nm and the λmaxFl was 805 nm. Also, the “emission when excited at 532 nm” value in data set [1] (PB and CM) is recorded as “no detectable emission”. In addition, in data set [1] (PB:ACN (4:1, v/v), 25° C.), the ΦF is 2.9%, the ε is recorded as 160,000 M^−1cm^−1 and the λmaxFl was 795 nm. In data set [1] (setting [4]), this compound showed a λmaxAb of 775 nm.
In data set [1] (CM:ACN (4:1, v/v), 25° C.), `CN1C(=CC=C2CCCC(=CC=C3N(CCCCCC(=O)O)c4ccccc4C3(C)C)C2=O)C(C)(C)c2ccccc21` [RD, 6-(−3,3-dimethyl-2-(−2-(−2-oxo-3-(2-(−1,3,3-trimethylindolin-2-ylidene)ethylidene)cyclohexylidene)ethylidene)indolin-1-yl)hexanoic acid] yielded a ΦF of 2.6%, a λmaxAb of 526 nm and a λmaxFl of 626 nm. Moreover, in data set [1] (PB:ACN (4:1, v/v), 25° C.), the ΦF is on record as 9.9% and the λmaxFl is given as 643 nm. Moreover, the λmaxAb in data set [1] (setting [4]) is given as 555 nm.
In data set [2] (setting [5]), `CC1(C)C(/C=C/C2=C3Oc4cc(O)ccc4C=C3CCC2)=[N+](CCCCCC(=O)O)c2ccccc21` [XCy, (E)-1-(5-carboxypentyl)-2-(2-(6-hydroxy-2,3-dihydro-1H-xanthen-4-yl)vinyl)-3,3-dimethyl-3H-indol-1-ium] registered a λmaxAbs of 679 nm and a λmaxFl of 713 nm. In addition, in data set [2] (setting [6]), the λmaxAbs amounted to 681 nm and the λmaxFl is given as 708 nm. In data set [2], the absorption maximum entry is on record as “about 680 nm” and the fluorescence result is “around 710 nm”.
`CC1(C)C(/C=C/C2=C3Oc4cc(OC(=O)CCCc5ccc(N(CCCl)CCCl)cc5)ccc4C=C3CCC2)=[N+](CCCCCC(=O)O)c2ccccc21` [XCy-CLB, (E)-2-(2-(6-((4-(4-(bis(2-chloroethyl)amino)phenyl)butanoyl)oxy)-2,3-dihydro-1H-xanthen-4-yl)vinyl)-1-(5-carboxypentyl)-3,3-dimethyl-3H-indol-1-ium]: in data set [2] (setting [5]), the λmaxAbs is 602 nm and the λmaxFl entry is “No fl”. Moreover, in data set [2] (setting [6]), the λmaxAbs is reported as 598 nm and the λmaxFl entry is given as “No fl”. Further, in data set [2], the absorption maximum is recorded as about 600 nm and the fluorescence result was “not detectable”. For the same compound, the half-life in data set [3] (bovine, in CM (cell medium pH 7.4, esterase present)) was about 0.667 h. In data set [3] (phosphate buffer, in PB pH 7.4), the half-life was about 8 h.
octreotide amide: the “Growth Inhibition (GI) / toxicity” value is given as “neither free OCT, nor free CLB exhibited detectible toxicity” in the data set with CHO and “neither free OCT, nor free CLB exhibited detectible toxicity” with Panc-1.

The values above are taken from patent US20220273823A1, “THERANOSTIC CONJUGATES” (Ariel Scientific Innovations Ltd., priority 2019, published 2022).
